Columns and labels:
[1] = tested on: normal NK cells expanded with K562-aAPC; experiment: percent inhibition of viability; higher = more inhibition; conditions: 72 h, IL-2 2.5 ng/mL
Experimental: (§1)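 Drug sensitivity and resistance testing on K562-aAPC-expanded normal NK cells: 5 concentrations (10-fold steps over a 10,000-fold range), 72 h at 37 °C, viability by CellTiter-Glo normalised to DMSO and benzethonium chloride controls; DSS from the fitted curve.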

DERL-7 (IL-2 2.5 ng/mL) [2] = experiment: as above; conditions: 72 h
IMC-1 (IL-2 20 ng/mL) [3] = experiment: as above; conditions: 72 h
KAI3 (IL-2 2.5 ng/mL) [4] = experiment: as above; conditions: 72 h
KHYG-1 (IL-2 2.5 ng/mL) [5] = experiment: as above; conditions: 72 h
NK-92 (IL-2 2.5 ng/mL) [6] = experiment: as above; conditions: 72 h
NK-YS (IL-2 2.5 ng/mL) [7] = experiment: as above; conditions: 72 h
NKL (IL-2 2.5 ng/mL) [8] = experiment: as above; conditions: 72 h
SNK-6 (IL-2 2.5 ng/mL) [9] = experiment: as above; conditions: 72 h
YT (IL-2 2.5 ng/mL) [10] = experiment: as above; conditions: 72 h
[11] = tested on: normal primary NK cells, pool 1 (3 donors) (IL-2 2.5 ng/mL); experiment: as above; conditions: 72 h
[12] = tested on: normal primary NK cells, pool 1 (3 donors), resting (IL-2 0 ng/mL); experiment: as above; conditions: 72 h
[13] = tested on: normal primary NK cells, pool 2 (3 donors) (IL-2 2.5 ng/mL); experiment: as above; conditions: 72 h
[14] = tested on: normal primary NK cells, pool 3 (3 donors) (IL-2 2.5 ng/mL); experiment: as above; conditions: 72 h
[15] = tested on: normal NK cells expanded with K562-aAPC; experiment: drug sensitivity score (DSS) (DSS units); higher = more sensitive; extreme values may be limits of the assay; conditions: 72 h; IL-2 2.5 ng/mL
Experimental: as §1

DERL-7 (IL-2 2.5 ng/mL) [16] = experiment: as above; conditions: 72 h
IMC-1 (IL-2 20 ng/mL) [17] = experiment: as above; conditions: 72 h
KAI3 (IL-2 2.5 ng/mL) [18] = experiment: as above; conditions: 72 h
KHYG-1 (IL-2 2.5 ng/mL) [19] = experiment: as above; conditions: 72 h
NK-92 (IL-2 2.5 ng/mL) [20] = experiment: as above; conditions: 72 h
NK-YS (IL-2 2.5 ng/mL) [21] = experiment: as above; conditions: 72 h
NKL (IL-2 2.5 ng/mL) [22] = experiment: as above; conditions: 72 h
SNK-6 (IL-2 2.5 ng/mL) [23] = experiment: as above; conditions: 72 h
YT (IL-2 2.5 ng/mL) [24] = experiment: as above; conditions: 72 h
[25] = tested on: normal primary NK cells, pool 1 (3 donors) (IL-2 2.5 ng/mL); experiment: as above; conditions: 72 h
[26] = tested on: normal primary NK cells, pool 1 (3 donors), resting (IL-2 0 ng/mL); experiment: as above; conditions: 72 h
[27] = tested on: normal primary NK cells, pool 2 (3 donors) (IL-2 2.5 ng/mL); experiment: as above; conditions: 72 h
[28] = tested on: normal primary NK cells, pool 3 (3 donors) (IL-2 2.5 ng/mL); experiment: as above; conditions: 72 h

SMILES: CNC(=O)c1cc(COc2nnc(Nc3ccc(Cl)cc3)c3ccoc23)ccn1 [Telatinib] (max concentration tested 10000 nM)
- percent inhibition of viability ([1]; 1 nM): -1.26%
- percent inhibition of viability ([1]; 10 nM): -3.44%
- percent inhibition of viability ([1]; 100 nM): 0.95%
- percent inhibition of viability ([1]; 1000 nM): 10.9%
- percent inhibition of viability ([1]; 10000 nM): 8.85%
- percent inhibition of viability (DERL-7 (IL-2 2.5 ng/mL) [2]; 1 nM): -7.49%
- percent inhibition of viability (DERL-7 (IL-2 2.5 ng/mL) [2]; 10 nM): -0.52%
- percent inhibition of viability (DERL-7 (IL-2 2.5 ng/mL) [2]; 100 nM): -1.32%
- percent inhibition of viability (DERL-7 (IL-2 2.5 ng/mL) [2]; 1000 nM): 7.55%
- percent inhibition of viability (DERL-7 (IL-2 2.5 ng/mL) [2]; 10000 nM): 16.5%
- percent inhibition of viability (IMC-1 (IL-2 20 ng/mL) [3]; 1 nM): -1.29%
- percent inhibition of viability (IMC-1 (IL-2 20 ng/mL) [3]; 10 nM): 6.77%
- percent inhibition of viability (IMC-1 (IL-2 20 ng/mL) [3]; 100 nM): 10.7%
- percent inhibition of viability (IMC-1 (IL-2 20 ng/mL) [3]; 1000 nM): 6.73%
- percent inhibition of viability (IMC-1 (IL-2 20 ng/mL) [3]; 10000 nM): 6.92%
- percent inhibition of viability (KAI3 (IL-2 2.5 ng/mL) [4]; 1 nM): -1.15%
- percent inhibition of viability (KAI3 (IL-2 2.5 ng/mL) [4]; 10 nM): -3.17%
- percent inhibition of viability (KAI3 (IL-2 2.5 ng/mL) [4]; 100 nM): -1.98%
- percent inhibition of viability (KAI3 (IL-2 2.5 ng/mL) [4]; 1000 nM): 4.4%
- percent inhibition of viability (KAI3 (IL-2 2.5 ng/mL) [4]; 10000 nM): 17.6%
- percent inhibition of viability (KHYG-1 (IL-2 2.5 ng/mL) [5]; 1 nM): -4.25%
- percent inhibition of viability (KHYG-1 (IL-2 2.5 ng/mL) [5]; 10 nM): 1.6%
- percent inhibition of viability (KHYG-1 (IL-2 2.5 ng/mL) [5]; 100 nM): 0.07%
- percent inhibition of viability (KHYG-1 (IL-2 2.5 ng/mL) [5]; 1000 nM): 3.62%
- percent inhibition of viability (KHYG-1 (IL-2 2.5 ng/mL) [5]; 10000 nM): 17.2%
- percent inhibition of viability (NK-92 (IL-2 2.5 ng/mL) [6]; 1 nM): -14.3%
- percent inhibition of viability (NK-92 (IL-2 2.5 ng/mL) [6]; 10 nM): 7.86%
- percent inhibition of viability (NK-92 (IL-2 2.5 ng/mL) [6]; 100 nM): 8.96%
- percent inhibition of viability (NK-92 (IL-2 2.5 ng/mL) [6]; 1000 nM): 9.44%
- percent inhibition of viability (NK-92 (IL-2 2.5 ng/mL) [6]; 10000 nM): 25.7%
- percent inhibition of viability (NK-YS (IL-2 2.5 ng/mL) [7]; 1 nM): -3.24%
- percent inhibition of viability (NK-YS (IL-2 2.5 ng/mL) [7]; 10 nM): -3.74%
- percent inhibition of viability (NK-YS (IL-2 2.5 ng/mL) [7]; 100 nM): 3.78%
- percent inhibition of viability (NK-YS (IL-2 2.5 ng/mL) [7]; 1000 nM): 6.85%
- percent inhibition of viability (NK-YS (IL-2 2.5 ng/mL) [7]; 10000 nM): 18%
- percent inhibition of viability (NKL (IL-2 2.5 ng/mL) [8]; 1 nM): 4.45%
- percent inhibition of viability (NKL (IL-2 2.5 ng/mL) [8]; 10 nM): 8.77%
- percent inhibition of viability (NKL (IL-2 2.5 ng/mL) [8]; 100 nM): 17.6%
- percent inhibition of viability (NKL (IL-2 2.5 ng/mL) [8]; 1000 nM): 24.9%
- percent inhibition of viability (NKL (IL-2 2.5 ng/mL) [8]; 10000 nM): 37.5%
- percent inhibition of viability (SNK-6 (IL-2 2.5 ng/mL) [9]; 1 nM): -6.76%
- percent inhibition of viability (SNK-6 (IL-2 2.5 ng/mL) [9]; 10 nM): -18.2%
- percent inhibition of viability (SNK-6 (IL-2 2.5 ng/mL) [9]; 100 nM): -10.9%
- percent inhibition of viability (SNK-6 (IL-2 2.5 ng/mL) [9]; 1000 nM): -17.2%
- percent inhibition of viability (SNK-6 (IL-2 2.5 ng/mL) [9]; 10000 nM): 39.8%
- percent inhibition of viability (YT (IL-2 2.5 ng/mL) [10]; 1 nM): -6.03%
- percent inhibition of viability (YT (IL-2 2.5 ng/mL) [10]; 10 nM): -1.57%
- percent inhibition of viability (YT (IL-2 2.5 ng/mL) [10]; 100 nM): 0.93%
- percent inhibition of viability (YT (IL-2 2.5 ng/mL) [10]; 1000 nM): 8.01%
- percent inhibition of viability (YT (IL-2 2.5 ng/mL) [10]; 10000 nM): 8.35%
- percent inhibition of viability ([11]; 1 nM): -11.3%
- percent inhibition of viability ([11]; 10 nM): 3.32%
- percent inhibition of viability ([11]; 100 nM): 6.19%
- percent inhibition of viability ([11]; 1000 nM): 3.83%
- percent inhibition of viability ([11]; 10000 nM): 4.17%
- percent inhibition of viability ([12]; 1 nM): -33.8%
- percent inhibition of viability ([12]; 10 nM): -3.86%
- percent inhibition of viability ([12]; 100 nM): 0.16%
- percent inhibition of viability ([12]; 1000 nM): -3.05%
- percent inhibition of viability ([12]; 10000 nM): 3.2%
- percent inhibition of viability ([13]; 1 nM): -8.51%
- percent inhibition of viability ([13]; 10 nM): 7.4%
- percent inhibition of viability ([13]; 100 nM): 6.24%
- percent inhibition of viability ([13]; 1000 nM): -6.6%
- percent inhibition of viability ([13]; 10000 nM): -0.18%
- percent inhibition of viability ([14]; 1 nM): -12.1%
- percent inhibition of viability ([14]; 10 nM): 2.04%
- percent inhibition of viability ([14]; 100 nM): 1.9%
- percent inhibition of viability ([14]; 1000 nM): -5.46%
- percent inhibition of viability ([14]; 10000 nM): -0.21%
- drug sensitivity score [15]: 0.23
- drug sensitivity score (DERL-7 (IL-2 2.5 ng/mL) [16]): 1
- drug sensitivity score (IMC-1 (IL-2 20 ng/mL) [17]): 0.48
- drug sensitivity score (KAI3 (IL-2 2.5 ng/mL) [18]): 0.91
- drug sensitivity score (KHYG-1 (IL-2 2.5 ng/mL) [19]): 0.8
- drug sensitivity score (NK-92 (IL-2 2.5 ng/mL) [20]): 1.85
- drug sensitivity score (NK-YS (IL-2 2.5 ng/mL) [21]): 0.7
- drug sensitivity score (NKL (IL-2 2.5 ng/mL) [22]): 7.2
- drug sensitivity score (SNK-6 (IL-2 2.5 ng/mL) [23]): 1.33
- drug sensitivity score (YT (IL-2 2.5 ng/mL) [24]): 0
- drug sensitivity score [25]: 0
- drug sensitivity score [26]: 0
- drug sensitivity score [27]: 0
- drug sensitivity score [28]: 0
